Laboratory results taken from ChEMBL document CHEMBL1201862, “PubChem BioAssay data set” (2004).
Activity calls are given as the source filed them.

Experiments:
Caspase-3 = biological target: T1, Caspase-3 (Homo sapiens, UniProt P42574); type: functional;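 further: Dose-response selectivity test against caspase-3 for candidate inhibitors of sentrin-specific proteases (SENPs)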
T1 sequence (P42574 whole entry): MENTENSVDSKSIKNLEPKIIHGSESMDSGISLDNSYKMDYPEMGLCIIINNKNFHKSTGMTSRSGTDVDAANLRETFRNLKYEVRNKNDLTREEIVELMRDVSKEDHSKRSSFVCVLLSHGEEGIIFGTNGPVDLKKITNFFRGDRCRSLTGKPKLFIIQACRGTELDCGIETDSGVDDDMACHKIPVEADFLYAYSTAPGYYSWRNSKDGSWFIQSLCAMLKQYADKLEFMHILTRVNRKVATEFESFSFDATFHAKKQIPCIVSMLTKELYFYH

[1] = biological target: T2, Sentrin-specific protease 8 (Homo sapiens, UniProt Q96LD8); type: functional;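 further: luminescence read-out of SENP8 inhibition, dose-response confirmation following an ultra-high-throughput screen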
T2 sequence (Q96LD8 whole entry): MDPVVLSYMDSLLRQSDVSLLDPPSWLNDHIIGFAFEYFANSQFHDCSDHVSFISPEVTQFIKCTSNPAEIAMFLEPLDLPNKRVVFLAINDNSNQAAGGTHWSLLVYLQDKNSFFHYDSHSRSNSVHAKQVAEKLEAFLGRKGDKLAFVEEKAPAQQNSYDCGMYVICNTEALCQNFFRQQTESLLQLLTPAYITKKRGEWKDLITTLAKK

[2] = biological target: Lysine-specific demethylase 4C (Homo sapiens, UniProt Q9H3R0); assay: GASC-1 (JMJD2C) histone demethylase inhibitors, dose response, biochemical, DELFIA europium, cherry-picked samples (AID 488835); type: functional
[3] = biological target: T3, Apoptotic protease-activating factor 1 (Homo sapiens, UniProt O14727); type: functional
T3 sequence (O14727 whole entry): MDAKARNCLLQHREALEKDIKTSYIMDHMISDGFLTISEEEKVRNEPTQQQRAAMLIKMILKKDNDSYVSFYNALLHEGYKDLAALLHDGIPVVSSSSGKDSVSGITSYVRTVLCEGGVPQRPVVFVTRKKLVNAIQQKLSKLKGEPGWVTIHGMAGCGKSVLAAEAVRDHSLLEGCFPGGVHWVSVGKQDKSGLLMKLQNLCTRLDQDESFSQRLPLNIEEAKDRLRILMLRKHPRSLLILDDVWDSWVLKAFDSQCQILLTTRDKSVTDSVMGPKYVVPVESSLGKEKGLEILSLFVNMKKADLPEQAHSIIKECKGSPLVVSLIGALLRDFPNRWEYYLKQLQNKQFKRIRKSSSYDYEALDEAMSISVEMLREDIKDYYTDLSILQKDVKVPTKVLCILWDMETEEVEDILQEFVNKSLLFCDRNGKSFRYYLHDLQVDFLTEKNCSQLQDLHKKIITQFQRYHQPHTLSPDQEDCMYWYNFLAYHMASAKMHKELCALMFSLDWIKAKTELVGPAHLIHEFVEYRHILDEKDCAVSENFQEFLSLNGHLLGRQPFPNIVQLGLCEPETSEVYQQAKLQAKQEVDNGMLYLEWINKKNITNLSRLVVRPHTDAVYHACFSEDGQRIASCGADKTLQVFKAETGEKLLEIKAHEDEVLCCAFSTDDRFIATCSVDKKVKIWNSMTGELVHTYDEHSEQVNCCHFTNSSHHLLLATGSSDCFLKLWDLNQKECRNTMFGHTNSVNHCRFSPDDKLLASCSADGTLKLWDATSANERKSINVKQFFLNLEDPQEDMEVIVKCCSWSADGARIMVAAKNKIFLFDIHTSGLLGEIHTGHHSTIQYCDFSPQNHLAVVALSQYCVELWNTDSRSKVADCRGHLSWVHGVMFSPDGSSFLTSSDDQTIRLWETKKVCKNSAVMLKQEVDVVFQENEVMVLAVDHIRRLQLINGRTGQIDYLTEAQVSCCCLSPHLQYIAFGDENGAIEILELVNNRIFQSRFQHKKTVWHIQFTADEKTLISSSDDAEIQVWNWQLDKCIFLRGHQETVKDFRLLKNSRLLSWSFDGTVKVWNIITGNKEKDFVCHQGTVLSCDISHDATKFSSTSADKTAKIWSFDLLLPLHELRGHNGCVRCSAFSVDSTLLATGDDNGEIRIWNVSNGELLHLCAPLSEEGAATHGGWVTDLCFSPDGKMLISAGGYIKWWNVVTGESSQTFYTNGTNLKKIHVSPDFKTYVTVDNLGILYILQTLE

Genome polyprotein = Genome polyprotein (dengue virus type 2, UniProt P29990); assay: Dengue-2 NS5 methyltransferase inhibitors, primary screen, biochemical, confirmation dose response (AID 588689); type: functional
Genome polyprotein, sequence (P29990 2492-3391 limits assumed): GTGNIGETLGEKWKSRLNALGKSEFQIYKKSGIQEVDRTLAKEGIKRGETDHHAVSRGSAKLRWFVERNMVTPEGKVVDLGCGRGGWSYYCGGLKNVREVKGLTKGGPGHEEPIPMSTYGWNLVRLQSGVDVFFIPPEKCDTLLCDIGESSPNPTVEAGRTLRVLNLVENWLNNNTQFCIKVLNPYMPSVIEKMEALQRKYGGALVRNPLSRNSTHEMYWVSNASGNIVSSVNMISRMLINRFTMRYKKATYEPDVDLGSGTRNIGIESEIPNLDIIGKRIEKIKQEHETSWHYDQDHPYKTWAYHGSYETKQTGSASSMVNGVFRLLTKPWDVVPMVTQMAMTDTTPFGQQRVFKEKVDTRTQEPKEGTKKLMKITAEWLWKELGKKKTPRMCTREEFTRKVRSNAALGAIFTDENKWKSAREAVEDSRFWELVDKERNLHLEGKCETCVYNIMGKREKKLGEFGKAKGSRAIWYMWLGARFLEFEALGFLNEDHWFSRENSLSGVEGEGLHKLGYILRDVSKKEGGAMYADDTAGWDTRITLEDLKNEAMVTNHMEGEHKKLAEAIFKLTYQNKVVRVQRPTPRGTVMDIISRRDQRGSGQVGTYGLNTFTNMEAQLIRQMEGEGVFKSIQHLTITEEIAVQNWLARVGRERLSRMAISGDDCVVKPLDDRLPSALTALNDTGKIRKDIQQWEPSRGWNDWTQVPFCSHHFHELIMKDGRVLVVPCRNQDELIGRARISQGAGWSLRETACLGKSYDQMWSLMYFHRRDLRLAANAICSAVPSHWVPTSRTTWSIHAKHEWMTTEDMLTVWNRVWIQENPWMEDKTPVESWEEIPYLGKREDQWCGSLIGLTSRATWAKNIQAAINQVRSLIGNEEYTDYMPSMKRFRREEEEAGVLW

[4] = biological target: G2/mitotic-specific cyclin-B1 (Homo sapiens, UniProt P14635); assay: Counterscreen assay for inhibitors of Wee1 degradation: dose response cell-based assay to identify inhibitors of cyclin B degradation. [Related pubchem assays: 1410, 1321 ]; type: functional
G2/mitotic-specific cyclin-B1, sequence (P14635 whole entry): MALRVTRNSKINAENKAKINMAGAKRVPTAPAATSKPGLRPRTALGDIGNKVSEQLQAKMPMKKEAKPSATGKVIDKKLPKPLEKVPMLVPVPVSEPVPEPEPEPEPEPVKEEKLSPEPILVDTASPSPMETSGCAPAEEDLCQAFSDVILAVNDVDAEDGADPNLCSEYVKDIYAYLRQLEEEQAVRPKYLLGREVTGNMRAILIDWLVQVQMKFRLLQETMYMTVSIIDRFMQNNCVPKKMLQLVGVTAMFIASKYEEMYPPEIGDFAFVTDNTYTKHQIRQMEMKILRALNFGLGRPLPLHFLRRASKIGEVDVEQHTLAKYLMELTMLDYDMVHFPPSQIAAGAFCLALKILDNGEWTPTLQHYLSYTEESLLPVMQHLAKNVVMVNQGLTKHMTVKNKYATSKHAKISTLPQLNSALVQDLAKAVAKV

Beta Lactamase = Beta Lactamase (Pseudomonas aeruginosa, UniProt Q932Y6); assay: beta-lactamase reporter inhibitor potency, dose response, artefact control for TLR9-MyD88 binding inhibitor project, BLA reporter cells, FRET fluorescence (AID 588341); type: cell-based;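 further: cell based assay in CHO-K1 cells stably expressing beta-lactamase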
Beta Lactamase, sequence (Q932Y6 whole entry): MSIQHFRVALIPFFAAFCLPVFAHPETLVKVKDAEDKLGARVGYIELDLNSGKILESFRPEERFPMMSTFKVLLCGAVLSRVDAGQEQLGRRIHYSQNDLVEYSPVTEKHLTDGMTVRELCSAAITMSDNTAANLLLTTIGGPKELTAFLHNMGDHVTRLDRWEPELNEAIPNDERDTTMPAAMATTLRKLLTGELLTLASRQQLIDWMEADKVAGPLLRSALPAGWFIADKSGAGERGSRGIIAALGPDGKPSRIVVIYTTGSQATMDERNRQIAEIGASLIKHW

[5] = biological target: Endoribonuclease toxin MazF (Escherichia coli K-12, UniProt P0AE70); assay: fluorescent RNA oligo signal without MazF, dose response, counter-screen for MazEF activator project, biochemical, fluorescence, single-stranded RNase substrate (AID 588502); type: functional
Endoribonuclease toxin MazF, sequence (P0AE70 whole entry): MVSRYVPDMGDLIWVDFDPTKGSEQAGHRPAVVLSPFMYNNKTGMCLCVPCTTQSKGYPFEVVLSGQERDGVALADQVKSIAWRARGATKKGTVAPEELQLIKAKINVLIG

Escherichia coli = assay: microbe, parasite or virus in culture
cells = type: functional, cell-based
[6] = cytotoxicity toward NIH3T3 fibroblasts, dose response, counter-screen, cell-based, ATP luminescence, mouse fibroblasts (AID 2010); type: functional;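 further: cells exposed to compound for about 90 hours before reading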
[7] = cytotoxicity in HEK-293T cells, dose response, cytotoxicity control for TCR NF-kB inhibitor project, luminescence, T-cell screen hits (AID 489026); type: functional, cell-based;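 further: cells exposed to compound about 14 hours before the viability readout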
HEK293 [8] = assay: SAR Analysis of small molecule inhibitors of T-cell specific antigen receptor-induced NF-kB activation in a HEK-293T cell line using a luminescence assay - Set 2. [Related pubchem assays (depositor defined):AID435003, AID435012, AID489026]; type: functional, cell-based; conditions: Homo sapiens
[9] = control 3'UTR Renilla luciferase suppression, dose response, counter-screen for Shn3 inhibitor project, cell-based, Clone20-Shn3RL, cherry-picked (AID 624133); type: functional
[10] = biological target: Heat shock cognate 71 kDa protein (Homo sapiens, UniProt P11142); assay: Hsc70 inhibitors, probe displacement, primary screen, biochemical, fluorescence polarization (AID 568)
Heat shock cognate 71 kDa protein, sequence (P11142 whole entry): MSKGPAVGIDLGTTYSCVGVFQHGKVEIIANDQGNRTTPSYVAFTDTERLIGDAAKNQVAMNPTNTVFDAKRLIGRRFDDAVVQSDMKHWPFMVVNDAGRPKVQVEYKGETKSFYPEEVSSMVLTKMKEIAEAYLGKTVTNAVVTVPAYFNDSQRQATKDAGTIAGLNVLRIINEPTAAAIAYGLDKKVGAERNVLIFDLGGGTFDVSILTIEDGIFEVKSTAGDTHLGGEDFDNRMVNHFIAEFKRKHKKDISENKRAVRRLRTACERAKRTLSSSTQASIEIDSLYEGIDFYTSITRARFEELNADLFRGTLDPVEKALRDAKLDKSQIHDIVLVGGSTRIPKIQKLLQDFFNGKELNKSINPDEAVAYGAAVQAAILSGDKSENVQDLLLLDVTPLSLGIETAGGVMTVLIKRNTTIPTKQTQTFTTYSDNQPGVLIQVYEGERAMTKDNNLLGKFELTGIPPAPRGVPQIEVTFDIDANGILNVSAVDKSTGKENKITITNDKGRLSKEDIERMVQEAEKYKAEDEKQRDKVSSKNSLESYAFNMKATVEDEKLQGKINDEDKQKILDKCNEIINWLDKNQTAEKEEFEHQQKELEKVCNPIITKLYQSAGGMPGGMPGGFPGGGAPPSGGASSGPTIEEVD

HEK293 [11] = assay: Fluorescence-based counterscreen for potentiators or agonists of NPY-Y2: cell-based high-throughput dose response assay to identify inhibitors of cyclic nucleotide gated ion channel (CNGC) activity. In this assay, the parental HEK293 cell line transfected with a cyclic-nucleotide gated ion channel (CNGC)-based cAMP sensor is used to measure inhibition of isoproterenol-induced CNGC activity by test compound.; type: functional; conditions: Homo sapiens
[12] = biological target: Eukaryotic translation initiation factor 4E (Mus musculus, UniProt P63073); assay: eIF4E–eIF4G protein interaction inhibitors, dose response, biochemical, TR-FRET (AID 855); type: functional;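 further: potency for disrupting eIF4E binding to eIF4GI seen as loss of FRET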
Fatty acid synthase = Fatty acid synthase (Homo sapiens, UniProt P49327); assay: FAS thioesterase domain inhibitors, dose response, biochemical, endpoint fluorescence intensity, uHTS hits (AID 624327); type: functional;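 further: fluorescence from hydrolysis of an O-methyl fluorescein acyl ester substrate by the enzyme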
Fatty acid synthase, sequence (P49327 whole entry, the tested form may be a part): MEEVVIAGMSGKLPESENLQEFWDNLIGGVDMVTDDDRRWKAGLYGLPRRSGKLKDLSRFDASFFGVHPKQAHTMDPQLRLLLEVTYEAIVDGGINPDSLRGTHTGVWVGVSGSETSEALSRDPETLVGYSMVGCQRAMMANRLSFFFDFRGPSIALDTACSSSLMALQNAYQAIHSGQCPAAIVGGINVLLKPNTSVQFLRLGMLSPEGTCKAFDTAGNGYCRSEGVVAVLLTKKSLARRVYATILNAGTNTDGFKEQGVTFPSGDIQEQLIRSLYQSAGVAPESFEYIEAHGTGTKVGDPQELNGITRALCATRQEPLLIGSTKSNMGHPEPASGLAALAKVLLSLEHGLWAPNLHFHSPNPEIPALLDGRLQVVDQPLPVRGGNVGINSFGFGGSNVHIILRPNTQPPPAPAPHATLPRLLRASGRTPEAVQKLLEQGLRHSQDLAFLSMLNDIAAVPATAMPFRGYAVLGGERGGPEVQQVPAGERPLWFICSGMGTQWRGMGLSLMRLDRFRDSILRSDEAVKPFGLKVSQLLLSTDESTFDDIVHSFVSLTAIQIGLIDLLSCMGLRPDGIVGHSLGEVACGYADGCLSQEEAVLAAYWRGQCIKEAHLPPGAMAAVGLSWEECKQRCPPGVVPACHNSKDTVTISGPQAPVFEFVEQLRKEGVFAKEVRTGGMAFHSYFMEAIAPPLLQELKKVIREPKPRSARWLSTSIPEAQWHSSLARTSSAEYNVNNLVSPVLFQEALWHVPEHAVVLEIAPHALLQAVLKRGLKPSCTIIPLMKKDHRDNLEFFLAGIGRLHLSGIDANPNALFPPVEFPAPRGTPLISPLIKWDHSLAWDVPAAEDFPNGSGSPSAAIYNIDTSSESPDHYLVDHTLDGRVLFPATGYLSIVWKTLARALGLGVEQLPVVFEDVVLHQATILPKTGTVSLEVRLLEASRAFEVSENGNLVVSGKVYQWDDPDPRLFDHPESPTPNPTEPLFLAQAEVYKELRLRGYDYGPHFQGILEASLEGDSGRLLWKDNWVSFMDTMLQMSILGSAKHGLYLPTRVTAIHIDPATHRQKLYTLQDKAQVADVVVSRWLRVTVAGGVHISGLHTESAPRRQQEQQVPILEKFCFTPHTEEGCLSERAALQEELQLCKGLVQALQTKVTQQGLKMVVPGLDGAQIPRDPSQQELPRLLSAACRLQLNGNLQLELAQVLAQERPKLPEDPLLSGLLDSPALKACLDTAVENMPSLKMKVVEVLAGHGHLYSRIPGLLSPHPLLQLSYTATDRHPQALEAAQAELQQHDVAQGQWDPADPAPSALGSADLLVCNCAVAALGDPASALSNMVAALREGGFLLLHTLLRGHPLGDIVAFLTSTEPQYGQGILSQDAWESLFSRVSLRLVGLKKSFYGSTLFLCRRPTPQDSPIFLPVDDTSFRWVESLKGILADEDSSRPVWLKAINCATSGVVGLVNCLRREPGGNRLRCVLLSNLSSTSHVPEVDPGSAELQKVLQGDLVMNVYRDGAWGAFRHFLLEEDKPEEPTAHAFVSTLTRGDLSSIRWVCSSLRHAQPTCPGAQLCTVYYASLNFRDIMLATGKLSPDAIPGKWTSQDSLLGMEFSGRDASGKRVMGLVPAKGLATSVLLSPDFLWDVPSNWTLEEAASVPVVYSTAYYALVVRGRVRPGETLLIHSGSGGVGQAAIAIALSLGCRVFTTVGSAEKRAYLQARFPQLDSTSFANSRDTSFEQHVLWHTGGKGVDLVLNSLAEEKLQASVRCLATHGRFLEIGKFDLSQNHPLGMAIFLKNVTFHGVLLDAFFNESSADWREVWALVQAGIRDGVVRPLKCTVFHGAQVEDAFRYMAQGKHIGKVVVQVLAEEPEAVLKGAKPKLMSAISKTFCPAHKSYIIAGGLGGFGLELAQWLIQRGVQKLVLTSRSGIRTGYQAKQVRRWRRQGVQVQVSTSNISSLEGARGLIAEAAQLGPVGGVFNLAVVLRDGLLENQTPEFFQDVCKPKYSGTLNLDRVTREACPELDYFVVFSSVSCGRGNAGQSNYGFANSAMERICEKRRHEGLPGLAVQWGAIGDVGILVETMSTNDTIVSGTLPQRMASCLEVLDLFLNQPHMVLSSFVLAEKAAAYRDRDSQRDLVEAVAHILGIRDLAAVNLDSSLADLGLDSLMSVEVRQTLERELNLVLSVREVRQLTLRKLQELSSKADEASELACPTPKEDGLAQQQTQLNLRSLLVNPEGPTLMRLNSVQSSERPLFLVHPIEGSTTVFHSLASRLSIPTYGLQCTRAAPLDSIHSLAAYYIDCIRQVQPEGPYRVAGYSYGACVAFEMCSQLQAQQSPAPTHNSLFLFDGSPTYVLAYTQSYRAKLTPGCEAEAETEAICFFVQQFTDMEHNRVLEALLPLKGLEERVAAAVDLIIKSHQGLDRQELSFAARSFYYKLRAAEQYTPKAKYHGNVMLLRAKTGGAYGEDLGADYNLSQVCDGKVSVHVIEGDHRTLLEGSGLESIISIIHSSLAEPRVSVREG

[13] = RKO cell viability reduction, dose response, CellTiter-Glo luminescence (AID 1117322); type: functional
[14] = HeLa 4N DNA content increase, dose response, cell-based, IC50 (AID 1117351); type: functional

In the case of `N#Cc1c(N2CCCCC2)nc(N)c2c(N)nc(SCC(=O)O)cc12`, the IC50 (Caspase-3) is reported as 33.7 µM (active), the IC50 [1] is reported as 10.6 µM (active) and the AC50 [2] is reported as 5.4 µM (active).

In the case of `CC1(C)Cc2ccccc2C2=NNC(=O)C2=N1`, the IC50 [3] is reported as 14 µM (active).

In the case of `CCc1ccc(S(=O)(=O)Nc2cc(SCC(=O)O)c(O)c3ccccc23)cc1`, the IC50 (Genome polyprotein) is reported as 9.53 µM (active).

In the case of `O=[N+]([O-])c1ccc(Sc2cccc[n+]2[O-])c2nonc12`, the EC50 [4] is reported as > 49.7 µM (not active), the IC50 (Beta Lactamase) is reported as 7.63 µM (active) and the EC50 [5] is reported as > 99 µM (inactive). For the same compound, the AC50 (Escherichia coli) was 5.53 µM (active).

For `CCCC(=O)NC(c1ccc(C(C)C)cc1)c1ccc2cccnc2c1O` (stereo not given), the EC50 (cells) was 3.8 µM (active), the EC50 [6] was 3.75 µM (active) and the IC50 [7] was > 80 µM (inactive). For the same compound, the IC50 (HEK293 [8]) was 3.76 µM (active) and the AC50 [9] was 0.938 µM (active).

With `Oc1c(Cl)cc(Cl)c(Cl)c1Cc1c(O)c(Cl)cc(Cl)c1Cl` [HEXACHLOROPHENE] the IC50 [10] was 27.4 µM (active), the EC50 (HEK293 [11]) was > 11.8 µM (not active) and the IC50 [12] was 17.9 µM (active). For the same compound, the IC50 (Fatty acid synthase) was 7.79 µM (active), the IC50 [13] was 0.108 µM (active) and the IC50 [14] was > 10 µM (inactive).
